Earlier results as cited in US12716021B2, “Aqueous modified acid compositions and methods of using the same” (FLUID ENERGY GROUP LTD., priority 2019, dated 2026).

Settings: death in 2-3 minutes

In the case of Cl [hydrogen chloride gas, hydrogen chloride], the “levels at which death can occur” value is listed as 1300-2000 ppm.
